The values below come from publication PMC8150775, “Repositioning Azelnidipine as a Dual Inhibitor Targeting CD47/SIRPα and TIGIT/PVR Pathways for Cancer Immuno-Therapy” (Biomolecules, 2021).

As a reminder, the pKd is −log10 of the Kd, conventionally taken in molar units.

pKd: −log10 of the molar value.

The target in experiment [1] is T1, human PVR (Homo sapiens, UniProt P15151).
T1 construct: His; purchased ACRO Biosystem CD5-H5223
Nature of the experiment: Microscale thermophoresis (MST) binding. As to the method:
(§1) MST assays were performed to test the affinity of SMI-F11 (azelnidipine) to the indicated protein using the Monolith NT.115 system, as previously reported. His tagged human SIRPα (SIA-H5225, ACRO Biosystem, Beijing, China), mouse SIRPα (50956-M08H, Sino Biological, Beijing, China), human PVR (CD5-H5223, ACRO Biosystem, Beijing, China), and mouse PVR (50259-M08H, Sino Biological, Beijing, China) were used. The protein was labeled with Red-NHS647 dye (NanoTemper Technologies GmhH, Munich, Germany) according to the manufacturer’s instructions. Azelnidipine was 2-fold serially diluted from 200 μM and subsequently tested. Red-NHS647 dye-labeled protein was incubated with the diluted azelnidipine, with equal volume for 5 min at room temperature; the mixture was then loaded onto standard capillaries for detection. The KD values were calculated by the analysis software (MO. Affinity Analysis, version number 2.2.4, NanoTemper Technologies GmhH, Munich, Germany).

In experiment [2] the target is mouse PVR (Mus musculus, UniProt F6V4I7). The experiment is described as follows: Microscale thermophoresis (MST) binding. As to the method: as §1
Sequence of mouse PVR (F6V4I7 29-347): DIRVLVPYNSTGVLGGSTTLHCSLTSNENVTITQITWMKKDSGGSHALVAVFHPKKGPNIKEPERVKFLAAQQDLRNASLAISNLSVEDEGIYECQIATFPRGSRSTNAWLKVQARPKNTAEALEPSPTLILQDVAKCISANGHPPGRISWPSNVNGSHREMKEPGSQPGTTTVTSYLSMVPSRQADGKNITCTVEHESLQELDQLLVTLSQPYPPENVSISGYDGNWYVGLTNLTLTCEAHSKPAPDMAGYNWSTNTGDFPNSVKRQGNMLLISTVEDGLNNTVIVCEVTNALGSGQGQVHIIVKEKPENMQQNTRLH
Background: Microscale thermophoresis detects binding through changes in fluorescence in a small temperature gradient.

Experiment [3] has as its target T2, mouse SIRPα (Mus musculus, UniProt P97797).
T2 construct: His; purchased Sino Biological 50956-M08H
Nature of the experiment: Microscale thermophoresis (MST) binding. As to the method:
as §1

Experiment [4] has as its target T3, human SIRPα (Homo sapiens, UniProt P78324).
T3 construct: His; purchased ACRO Biosystem SIA-H5225
Nature of the experiment: Microscale thermophoresis (MST) binding. Here is the method: as §1

Experiment [5] deals with CT26 tumors. The experiment is described as follows: CT26 tumor model with ex vivo T cell analysis. It counts as in vivo, BALB/c mice. Conditions: for Spleen CD8+IFN-γ (%): splenocytes. As to the method:
BABL/c mice were subcutaneously (s.c.) injected with 2 × 10^5 CT26 cells on the right back, and C57BL/6 mice were injected with 1 × 10^6 MC38 cells. One week later, tumor-bearing mice were randomized into indicated groups, and intraperitoneal (i.p.) injected with azelnidipine or normal saline every day for two weeks. Tumor volumes were measured every other day by the (a) length, (b) width, and (c) height and calculated as volume (V) = a × b × c/2. For the combinational model of azelnidipine and radiotherapy (RT), MC38 tumor-bearing mice received irradiation (IR) when the tumors reached 80–100 mm^3. The mice received one dose of 20 Gy irradiation at the tumor local site, and followed by the treatment of azelnidipine.
Tumor-bearing mice were sacrificed at the end of the treatment. The tumors were dissected and digested into single cell with an enzyme cocktail of 100 U/mL collagenase IV; and Dnase I. The infiltration of CD8^+ T cells at the tumor site was detected by flow cytometry by staining of anti-mouse CD45, anti-mouse CD3, anti-mouse CD8α or isotype control. The MDSCs at the tumor site were analyzed by staining of anti-mouse CD45, anti-mouse CD11b, anti-mouse Ly6C, and anti-mouse Ly6G. Spleens and draining lymph nodes were grinded and filtered into a single cell suspension. The tumor-infiltrating lymphocytes (TILs) isolated by Percoll-gradient centrifugation, splenocytes, and cells from draining lymph nodes were also performed the intracellular cytokine staining assays. The cells were stimulated with or without 20 ng/mL of phorbol 12-myristate 13-acetate (PMA, Sigma-Aldrich, St. Louis, MO, USA) and 1 µM ionomycin (Sigma-Aldrich) with the presence of protein transport inhibitor cocktail (eBioscience) for 4 h. The surface marker CD3, CD8, and the intracellular cytokine marker IFN-γ were sequentially stained according to the Foxp3/Transcription Factor Staining Buffer Set (00-5523, eBioscience). The frequency of IFN-γ secreting CD8^+ T cells were counted according to the fluorescence minus one (FMO) control with the isotype control of IFN-γ antibody.
Figure 6 The antitumor effects of azelnidipine in CT26 tumor model. (A) CT26 tumor-bearing mice were i.p. administrated with 2 or 5 mg/kg of azelnidipine each day for 2 weeks as in the schematic diagram. (B) Tumor growth curve of CT26 tumor-bearing mice treated with normal saline or azelnidipine (n = 7). *, p < 0.05, ***, p < 0.001.Two-way ANOVA with Tukey’s multiple-comparisons test were conducted. (C) Representative flow cytometry plots and summary data of the frequency of CD8^+ T cells in the tumor tissues. Representative intracellular IFN-γ staining plots and summary data of the tumor infiltrating CD8^+ T cells (D), tumor-draining lymph node cells (E) and splenocytes (F). The frequency of IFN-γ secreting CD8^+ T cells were counted according to the fluorescence minus one (FMO) control with the isotype control of IFN-γ antibody. *, p < 0.05, **, p < 0.01, Student’s t-test were conducted. TEXT PRINTED IN THE PICTURE: (C) NS: Tumor CD3^+CD8^+ (%): 6.27 | (C) Azelnidipine: Tumor CD3^+CD8^+ (%): 7.46 (2 mg/kg); Tumor CD3^+CD8^+ (%): 9.35 (5 mg/kg) | (D) NS: Tumor CD8^+IFN-γ (%): 14.8 | (D) Azelnidipine: Tumor CD8^+IFN-γ (%): 12.4 (2 mg/kg); Tumor CD8^+IFN-γ (%): 20.0 (5 mg/kg) | (E) NS: dLN CD8^+IFN-γ (%): 0.45 | (E) Azelnidipine: dLN CD8^+IFN-γ (%): 0.53 (2 mg/kg); dLN CD8^+IFN-γ (%): 1.10 (5 mg/kg) | (F) NS: Spleen CD8^+IFN-γ (%): 5.32 | (F) Azelnidipine: Spleen CD8^+IFN-γ (%): 7.71 (2 mg/kg); Spleen CD8^+IFN-γ (%): 7.91 (5 mg/kg) DOUBTS OF THE COPYIST ABOUT THIS PICTURE: Panels C-F: the flow plots are headed only 'NS', '2 mg/kg' and '5 mg/kg'. The name 'Azelnidipine' is taken from panels A and B of the same picture. / Panels C-F: the numbers in the flow plots have no measure or unit beside them. The measure (e.g. 'CD3^+CD8^+ (%)') and the tissue ('Tumor', 'dLN', 'Spleen') are taken from the bar chart in the same panel. / NS is the control group. […]

T1 sequence (P15151 21-417): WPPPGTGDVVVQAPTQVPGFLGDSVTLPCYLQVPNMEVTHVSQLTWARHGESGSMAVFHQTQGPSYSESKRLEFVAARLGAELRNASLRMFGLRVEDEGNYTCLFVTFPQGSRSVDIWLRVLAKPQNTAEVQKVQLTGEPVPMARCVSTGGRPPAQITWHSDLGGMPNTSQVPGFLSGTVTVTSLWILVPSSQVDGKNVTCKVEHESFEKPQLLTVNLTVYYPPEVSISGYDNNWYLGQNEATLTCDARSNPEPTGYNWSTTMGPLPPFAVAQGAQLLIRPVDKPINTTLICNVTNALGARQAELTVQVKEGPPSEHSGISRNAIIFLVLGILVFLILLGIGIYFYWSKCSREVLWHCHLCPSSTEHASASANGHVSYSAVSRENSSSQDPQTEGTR
T2 sequence (P97797 32-513): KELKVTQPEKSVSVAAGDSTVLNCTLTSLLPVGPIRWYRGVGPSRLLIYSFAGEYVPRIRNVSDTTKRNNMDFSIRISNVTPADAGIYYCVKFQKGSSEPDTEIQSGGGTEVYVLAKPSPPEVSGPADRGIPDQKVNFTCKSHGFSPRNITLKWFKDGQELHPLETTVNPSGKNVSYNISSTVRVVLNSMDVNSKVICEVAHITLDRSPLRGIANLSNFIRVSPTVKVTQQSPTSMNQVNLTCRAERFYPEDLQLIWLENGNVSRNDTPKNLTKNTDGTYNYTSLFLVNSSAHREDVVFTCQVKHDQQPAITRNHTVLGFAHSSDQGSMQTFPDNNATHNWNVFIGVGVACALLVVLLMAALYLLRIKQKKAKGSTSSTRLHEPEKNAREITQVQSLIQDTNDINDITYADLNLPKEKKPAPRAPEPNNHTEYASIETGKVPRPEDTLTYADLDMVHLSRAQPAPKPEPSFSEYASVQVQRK
T3 sequence (P78324 31-504): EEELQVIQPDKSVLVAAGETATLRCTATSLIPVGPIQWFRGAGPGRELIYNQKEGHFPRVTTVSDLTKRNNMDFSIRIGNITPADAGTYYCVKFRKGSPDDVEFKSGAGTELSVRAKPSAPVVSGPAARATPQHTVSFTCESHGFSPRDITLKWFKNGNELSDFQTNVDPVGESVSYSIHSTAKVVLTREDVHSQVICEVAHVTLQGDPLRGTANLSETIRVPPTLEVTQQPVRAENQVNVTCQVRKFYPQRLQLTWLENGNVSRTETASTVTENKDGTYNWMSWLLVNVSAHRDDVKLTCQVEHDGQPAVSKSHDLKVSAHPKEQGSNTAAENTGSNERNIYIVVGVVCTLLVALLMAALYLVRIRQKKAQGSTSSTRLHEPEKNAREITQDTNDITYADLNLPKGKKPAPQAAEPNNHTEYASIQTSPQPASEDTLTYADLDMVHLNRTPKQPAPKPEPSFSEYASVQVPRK

On to `CC1=C(C(=O)OC(C)C)C(c2cccc([N+](=O)[O-])c2)C(C(=O)OC2CN(C(c3ccccc3)c3ccccc3)C2)=C(N)N1` (stereo not shown) [Azelnidipine], for which the negative-log Kd (pKd) in experiment [1] was 5.19; in experiment [2], 4.88; in experiment [3] it was 5.43; in experiment [4], 5.27. The “Spleen CD8+IFN-γ (%)” value in experiment [5] (2 mg/kg i.p. (low dosage)) is “enhance”; in experiment [5] (5 mg/kg i.p. (high dosage)), “significantly boost”. The “dLN CD8+IFN-γ (%)” value in experiment [5] (5 mg/kg i.p. (high dosage), tumor-draining lymph node) is recorded as “significantly boost”. Besides, the CT26 tumor growth result in experiment [5] (2 and 5 mg/kg i.p. each day for 2 weeks) was “significantly restrict”. Moreover, in experiment [5] (dose not given), the “IFN-γ secretion function of the tumor infiltrating CD8+ T cells” value is “enhanced”. Besides, the “frequency of CD8+ T cells in the tumor tissues” value in experiment [5] (dose not given) is listed as “remarkably increase”.
